Three compounds from patent publication EP4248959A1, “PREPARATION FOR REDUCTION OF PATHOLOGICAL IRON OVERLOAD” (Dr. Franz Köhler Chemie GmbH, priority 2022, dated 2023) can be followed below.

“Also recorded” adds a separate entry of the source.

One data set concerns CHO-K1 cells. Kind of data set: In vitro micronucleus assay (cytokinesis-block, OECD 487, GLP) with and without S9 metabolic activation. It counts as cell-based. To be noted: for concentration-related increase in frequency of MN: Chi-square test for trend; for micronucleus frequency / MN formation compared with the concurrent negative control: with and without metabolic activation, Chi-square test with Yates' correction. An excerpt: The in vitro Micronucleus Assay (MNA) is a mutagenic test system for the detection of chemicals that induce the formation of small membrane-bound DNA fragments (micronuclei (MN)) in the cytoplasm of interphase cells. The MNA, used for regulatory purposes measures formation of chromosomal changes following DNA damage induced by the compounds under test, and is used to predict the genotoxic potential of pharmaceuticals, industrial chemicals, food additives and cosmetic ingredients.
MN originate from chromosome fragments or whole chromosomes that are not included in the main daughter nuclei during nuclear division. They reflect chromosome damage and may thus provide a marker of genotoxicity and even early-stage carcinogenesis. The most commonly used method in mammalian cells is the cytokinesis-block micronucleus (CBMN) assay. In the CBMN assay, MN are scored after a single cell division using binucleated cultured cells (accumulated using cytochalasin B) to eliminate the confounding effect of altered cell division kinetics on the MN index.
The formation of MN is a consequence of chromosomal breakage and/or spindle-fiber dysfunction induced by clastogens and/or aneuploidogens.
DMSO controls were run concurrently for each experiment.
Micronucleus frequency was analyzed in at least 2000 binucleate cells per concentration and control.
In order to assess genotoxic potential. […] Statistical analysis of the MN frequency and binucleate cells with MN was performed using the Chi-square test with Yates' correction. To examine the dose-response relationship in frequencies of the micronuclei Chi-square test for trend was performed.

The next data set deals with rat. The data set can be described thus: Acute toxicology following intravenous administration of a single dose. It counts as in vivo. The method, then:
1. Acute toxicology of 2,3-dimethoxy-N-methylbenzhydroxamic acid (XIII) following intra venous administration of a single dose.
In the preliminary phase, 1 male and 1 female rat were dosed at 200 mg/kg and observed for a period of 7 days. […] A further group of 1 male and 1 female animals was dosed at a dose level of 300 mg/kg. […] Recovery occurred approximately 4 hours after dosing.
In the main phase of the study, 1 group of 5 male and 5 female animals was dosed at 300 mg/kg and observed for a period of 14 days. […] Recovery occurred by Day 3.

The mark [1] stands for this setting: both, rat, in vivo, iv, 300 mg/kg.
[2] abbreviates: rat, single i.v. dose of 300 mg/kg body weight.

Take `O=P1(N(CCCl)CCCl)NCCCO1` (centres unmarked) [CP, cyclophosphamide, reference compound]: in the data set on CHO-K1 cells, the “concentration-related increase in frequency of MN” value is “increased” and the “micronucleus frequency / MN formation compared with the concurrent negative control” value is given as “significantly induced”.
With `COc1ccc(C(=O)N(C)O)cc1OC` [LK 614, 3,4-dimethoxy-N-methylbenzhydroxamic acid], in the data set with CHO-K1 cells, the “dose-dependent genetic toxicity (summary)” value is given as “did not produce dose-dependent genetic toxicity”; the “concentration-related increase in frequency of MN” value is recorded as “not observed; also recorded: no dose-related increase”; the “micronucleus frequency / MN formation compared with the concurrent negative control” value is recorded as “did not exhibit statistically significant increase; also recorded: None of tested concentrations of test item, LK 614, exhibits a statistically significant increase”. Further, in the data set on CHO-K1 cells (+S9 short, -S9 short and -S9 extended treatment), the “genotoxicity (MNA test result)” value is on record as “no genotoxicity”.
`COc1cccc(C(=O)N(C)O)c1OC` [XIII, 2,3-dimethoxy-N-methylbenzhydroxamic acid]: in the data set on rat (setting [1]), the recovery was no more than 3 days and the recovery after dosing result is listed as “approximately 4 hours”. For the same compound, the mortality entry in the data set on rat (main phase, 5 male and 5 female rats, 300 mg/kg i.v. single dose, observed 14 days) was “No mortality occurred”. Further, in the data set on rat (preliminary phase, 1 male and 1 female rat, 200 mg/kg i.v. single dose, observed 7 days), the mortality result is “No mortality”. The necropsy examination entry with rat (rat, in vivo) is “No abnormalities”. Further, the clinical signs entry with rat (rat, in vivo, iv, 200 mg/kg) is “no clinical signs”. For the same compound, in the data set on rat (setting [2]), the “tolerability of dose level” value is “reasonably tolerated” and the “toxic effect (overall conclusion)” value was “slight toxic effect”.
